Molecular target: T1, 14-3-3 protein gamma (Homo sapiens, UniProt P61981)
T1 sequence (P61981 whole entry): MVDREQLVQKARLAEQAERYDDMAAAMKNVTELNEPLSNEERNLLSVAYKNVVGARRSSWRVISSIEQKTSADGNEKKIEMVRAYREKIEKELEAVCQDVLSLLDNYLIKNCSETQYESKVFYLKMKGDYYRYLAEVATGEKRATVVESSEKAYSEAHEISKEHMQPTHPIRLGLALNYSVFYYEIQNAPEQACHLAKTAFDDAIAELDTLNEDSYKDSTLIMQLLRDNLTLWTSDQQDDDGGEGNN
Assay: modulators of 14-3-3 gamma client binding – dose response (AID 711)

Row | SMILES | IC50 [µM]
1 | Cc1ccc(C2C3CN(C(C)C)CCC3=C(C#N)C(=N)C2(C#N)C#N)cc1 (stereo not drawn) [SMR000034220] | > 50
2 | CC1=NC(c2ccccc2)C(C#N)(C#N)C(C#N)(C#N)C1 (stereo not drawn) [SMR000037705] | 3.15
3 | CC(N=O)C(=O)NCc1ccccn1 (stereo not drawn) [(2E)-2-(hydroxyimino)-N-(pyridin-2-ylmethyl)propanamide] | > 50

— BindingDB's records for doi:10.7270/Q2V986FT (Emory University, 2007)
